Measurements from patent US8575306B2, “Target and method for inhibition of bacterial RNA polymerase” (Rutgers, The State University of New Jersey, priority 2002, dated 2013).
“Also recorded” adds a separate entry of the source. Where a SMILES comes first, the peptide text is derived from it.

How the values were obtained:
RNAP holoenzyme [1] = target: T1, RNAP holoenzyme (Escherichia coli, UniProt P0A8T7); assay: Electrophoretic mobility shift assays (open-complex formation, lacUV5 promoter); assay type: biochemical; details: MccJ25 at 1, 10, or 100 μM
T1 construct: RNAP holoenzyme was prepared from, strain XE54/pREII-NHα; made in house; host or cells: E. coli strain XE54/pREII-NHα
Experimental: Following 15 min at 37° C., 0.5 μl 1 mg/ml heparin was added (to disrupt non-specific complexes (Cech and McClure (1980) Biochem. 19, 2440-2447)), and, following a further 2 min at 37° C., reaction mixtures were applied to 5% polyacrylamide slab gels (30:1 acrylamide/bisacrylamide; 6×9×0.1 cm) and electrophoresed in 90 mM Tris-borate (pH 8.0) and 0.2 mM EDTA (20 V/cm; 30 mm at 37° C.) and analyzed using an x/y fluorescence scanner (Storm 860; Molecular Dynamics, Inc.).

RNAP [2] = target: RNAP (Escherichia coli, UniProt P0A8T7); details: crude cell extracts; Delgado et al. (2001); cited from earlier work
[3] = target: T2, [Ile931]β′-RNAP holoenzyme (Escherichia coli, UniProt P0A8T7, T931I); assay: Transcription assays with MccJ25-resistant RNAP derivative; assay type: biochemical
T2 construct: hexahistidine (C); made in house; host or cells: E. coli strain 397c (rpoC ts397) transformed with a pRL663 derivative
Experimental: (§1) MccJ25 interferes with a process common to both abortive initiation and elongation—i.e., NTP uptake, phosphodiester-bond formation, or translocation.
RNAP holoenzyme was prepared from, strain XE54/pREII-NHα (thi pREII-NHα; Niu et al., (1996) Cell 87, 1123-1134) using metal-ion affinity chromatography and ion-exchange chromatography (Id.). (Ile931]β′-RNAP holoenzyme was prepared from strain 397c [rpoC^ts397 argG thi lac λcI857h80St68dlac^+); Christie et al., (1996) J. Bacteriol. 178, 6991-6993) transformed with a pRL663 derivative encoding [Ile931]β′-RNAP (constructed using site-directed mutagenesis (QuikChange Site-Directed Mutagenesis Kit; Stratagene, Inc).) using identical procedures. Yields typically were 6 mg. Purities typically were >95%.
Following 15 min at 37° C., 0.5 μl 1 mg/ml heparin, was added, and, following a further 2 min at 37° C., RNA synthesis was initiated by addition of 2 μl 5 mM ApA and 125 μM (or 250 jiM, 500 μM, and 1 mM) each of [α-^32P]UTP (0.6 Bq/fmol), ATP, CTP, GTP. […] Products were heated 10 min at 90° C., resolved by urea-PAGE (Sambrook and Russell (2001). Molecular Cloning: A Laboratory Manual (Cold Spring Harbor, N.Y., Cold Spring Harbor Laboratory)), and quantified using an x/y storage-phosphor scanner (Storm 860; Molecular Dynamics, Inc.). […]

RNAP holoenzyme [4] = target: T1, RNAP holoenzyme; assay: Transcription assays (abortive initiation and elongation, lacUV5 promoter); assay type: biochemical
Experimental: as §1
Following 15 min at 37° C., 0.5 μl 1 mg/ml heparin, was added, and, following a further 2 min at 37° C., RNA synthesis was initiated by addition of 2 μl 5 mM ApA and 125 μM (or 250 jiM, 500 μM, and 1 mM) each of [α-^32P]UTP (0.6 Bq/fmol), ATP, CTP, GTP. Following 5 min at 37° C., reactions were terminated by addition of 10 μl 80% formamide, 10 mM EDTA, 0.04% bromophenol blue, and 0.04% xylene cyanol. Products were heated 10 min at 90° C., resolved by urea-PAGE (Sambrook and Russell (2001). Molecular Cloning: A Laboratory Manual (Cold Spring Harbor, N.Y., Cold Spring Harbor Laboratory)), and quantified using an x/y storage-phosphor scanner (Storm 860; Molecular Dynamics, Inc.). Data were fit to full-competitive, partial-competitive, full-noncompetitive, partial-noncompetitive, full-uncompetitive, partial-uncompetitive, full-mixed, and partial-mixed models of inhibition using the Fit-To-Model feature of the SigmaPlot Enzyme Kinetics Module (SPSS, Inc.).

RNAP [5] = assay: Cross-resistance with rifampicin; details: unpublished data
[6] = MccJ25 at 1, 10, or 100 μM, 5 min at 37° C.

SMILES: CC[C@H](C)[C@H](NC(=O)CNC(=O)[C@@H](NC(=O)[C@H](Cc1ccccc1)NC(=O)[C@H](Cc1ccc(O)cc1)NC(=O)[C@@H]1CCC(=O)NCC(=O)NCC(=O)N[C@@H](C)C(=O)NCC(=O)N[C@@H](Cc2c[nH]cn2)C(=O)N[C@@H](C(C)C)C(=O)N2CCC[C@H]2C(=O)N1)C(C)C)C(=O)NCC(=O)N[C@H](C(=O)N1CCC[C@H]1C(=O)N[C@H](C(=O)N[C@@H](CO)C(=O)N[C@@H](Cc1ccccc1)C(=O)N[C@@H](Cc1ccc(O)cc1)C(=O)NCC(=O)O)[C@@H](C)CC)[C@@H](C)O [MccJ25] (HELM PEPTIDE1{G.G.A.G.H.V.P.E.Y.F.V.G.I.G.T.P.I.S.F.Y.G}$PEPTIDE1,PEPTIDE1,1:R1-8:R3$$$V2.0)
- effect on formation of open complex (RNAP holoenzyme [1]): no effect; also recorded: does not inhibit
- inhibition of RNAP-dependent transcription (RNAP [2]): inhibits
- inhibition of transcription upon substitution of residue 931 of the RNAP β′ subunit (Thr931→Ile) [3]: overcome completely
- inhibition of formation of abortive products (7 nt and 8 nt RNA species) (RNAP holoenzyme [4]; [6]): inhibits
- inhibition of formation of the full-length product (26 nt RNA species) (RNAP holoenzyme [4]; [6]): inhibits
- NTP-concentration dependence of inhibition (RNAP holoenzyme [4]; NTP 12.5, 25, 50 and 100 μM): NTP-concentration-dependent
- mode of inhibition (RNAP holoenzyme [4]; with respect to NTPs, 7-mer and 8-mer abortive products): partial competitive
- cross-resistance with rifampicin (RNAP [5]): do not exhibit cross-resistance
